From PubChem BioAssay AID1259407 (Chemical Carcinogenesis Research Information System (CCRIS), 2018) come the findings set out here.

Structures are written as SMILES. Activity calls are given as the source filed them. The rule behind the calls is not given here.

This series has as its system CCRIS mutagenicity, Ames/micronucleus/aberration tests. Nature of the series: CCRIS mutagenicity studies.
Where [1] appears, read: Test System: AMES SALMONELLA TYPHIMURIUM, Strain/Indicator: TA98, Metabolic Activation: NONE, Method: PREINCUBATION
Setting [2] is: Test System: AMES SALMONELLA TYPHIMURIUM, Strain/Indicator: TA98, Metabolic Activation: RAT, LIVER, S-9, AROCLOR 1254, Method: PREINCUBATION
[3] abbreviates: Test System: AMES SALMONELLA TYPHIMURIUM, Strain/Indicator: TA100, Metabolic Activation: NONE, Method: PREINCUBATION
Where [4] appears, read: Test System: AMES SALMONELLA TYPHIMURIUM, Strain/Indicator: TA100, Metabolic Activation: RAT, LIVER, S-9, AROCLOR 1254, Method: PREINCUBATION
Setting [5] is: Test System: AMES SALMONELLA TYPHIMURIUM, Strain/Indicator: TA102, Metabolic Activation: NONE, Method: PREINCUBATION
[6] abbreviates: Test System: AMES SALMONELLA TYPHIMURIUM, Strain/Indicator: TA102, Metabolic Activation: RAT, LIVER, S-9, AROCLOR 1254, Method: PREINCUBATION
The mark [7] stands for this setting: Test System: AMES SALMONELLA TYPHIMURIUM, Strain/Indicator: TA98, Metabolic Activation: MOUSE, LIVER, S-9, Method: STANDARD PLATE.
Setting [8] is: Test System: AMES SALMONELLA TYPHIMURIUM, Strain/Indicator: TA98, Metabolic Activation: NONE, Method: STANDARD PLATE.
[9] abbreviates: Test System: AMES SALMONELLA TYPHIMURIUM, Strain/Indicator: TA100, Metabolic Activation: MOUSE, LIVER, S-9, Method: STANDARD PLATE.
Setting [10] is: Test System: AMES SALMONELLA TYPHIMURIUM, Strain/Indicator: TA100, Metabolic Activation: NONE, Method: STANDARD PLATE.
Setting [11] is: Test System: AMES SALMONELLA TYPHIMURIUM, Strain/Indicator: TA1538, Metabolic Activation: NONE, Method: STANDARD PLATE.
Setting [12] is: Test System: AMES SALMONELLA TYPHIMURIUM, Strain/Indicator: TA98, Metabolic Activation: RAT, LIVER, S-9, AROCLOR 1254, Method: STANDARD PLATE.

`CS(C)(=O)=O`: the mutagenic call is “inactive; negative” under setting [1]; “inactive; negative” under setting [2]; “inactive; negative” under setting [3]; “inactive; negative” under setting [4]; “inactive; negative” under setting [5]; “inactive; negative” under setting [6].
In the case of `CC(=O)Oc1cc([N+](=O)[O-])c2ccc3cccc4ccc1c2c43`, the mutagenic call was “active; positive” (Test System: AMES SALMONELLA TYPHIMURIUM, Strain/Indicator: TA98(1,8-DNP6), Metabolic Activation: NONE, Method: PREINCUBATION); “active; positive” (Test System: AMES SALMONELLA TYPHIMURIUM, Strain/Indicator: TA98(NR), Metabolic Activation: NONE, Method: PREINCUBATION); “active; positive” under setting [1]; “inactive; negative” under setting [2]; “active; positive” under setting [3]; “active; positive” under setting [4].
With `C=CCCCCCCCCCCCCC`, the mutagenic call was “inactive; negative” under setting [7]; “inactive; negative” under setting [8]; “inactive; negative” under setting [9]; “inactive; negative” under setting [10]; “inactive; negative” (Test System: AMES SALMONELLA TYPHIMURIUM, Strain/Indicator: TA1535, Metabolic Activation: NONE, Method: STANDARD PLATE); “inactive; negative” under setting [11].
Take `Cc1ccc(N(CC2(O)OC[C@@H](O)[C@@H](O)[C@@H]2O)N=O)cc1` (some centres undefined): for the setting “Test System: AMES SALMONELLA TYPHIMURIUM, Strain/Indicator: TA100, Metabolic Activation: NONE, Method: LIQUID INCUBATION”, the mutagenic call is “active; positive”.
Regarding `CC(=O)N(OC(=O)c1ccccc1)c1ccc2c(c1)Cc1ccccc1-2`, the mutagenic call under setting [8] was “active; positive” and the mutagenic call under setting [12] is “active; positive”.
In the case of `O=C([O-])c1cccnc1Nc1cccc(C(F)(F)F)c1.O=C([O-])c1cccnc1Nc1cccc(C(F)(F)F)c1.OCc1cccnc1.OCc1cccnc1.[Cu+2]`, the mutagenic call (Test System: AMES SALMONELLA TYPHIMURIUM, Strain/Indicator: TA97, Metabolic Activation: MOUSE, LIVER, S-9, Method: STANDARD PLATE) was “inactive; negative”; the mutagenic call (Test System: AMES SALMONELLA TYPHIMURIUM, Strain/Indicator: TA97, Metabolic Activation: NONE, Method: STANDARD PLATE) was “inactive; negative”; the mutagenic call (Test System: AMES SALMONELLA TYPHIMURIUM, Strain/Indicator: TA97, Metabolic Activation: RAT LIVER S-9, DELOR 103, Method: STANDARD PLATE) is “inactive; negative”; the mutagenic call under setting [7] is “inactive; negative”; the mutagenic call under setting [8] is “inactive; negative”; the mutagenic call (Test System: AMES SALMONELLA TYPHIMURIUM, Strain/Indicator: TA98, Metabolic Activation: RAT LIVER S-9, DELOR 103, Method: STANDARD PLATE) was “inactive; negative”. Besides, the mutagenic call reads like this: under setting [9], “inactive; negative”; under setting [10], “inactive; negative”; (Test System: AMES SALMONELLA TYPHIMURIUM, Strain/Indicator: TA100, Metabolic Activation: RAT LIVER S-9, DELOR 103, Method: STANDARD PLATE) “inactive; negative”; (Test System: AMES SALMONELLA TYPHIMURIUM, Strain/Indicator: TA102, Metabolic Activation: MOUSE, LIVER, S-9, Method: STANDARD PLATE) “inactive; negative”; (Test System: AMES SALMONELLA TYPHIMURIUM, Strain/Indicator: TA102, Metabolic Activation: NONE, Method: STANDARD PLATE) “inactive; negative”; (Test System: AMES SALMONELLA TYPHIMURIUM, Strain/Indicator: TA102, Metabolic Activation: RAT LIVER S-9, DELOR 103, Method: STANDARD PLATE) “inactive; negative”.
As for `CC(=O)OC/C=C(C)/C=C/C=C(C)/C=C/C1=C(C)CCCC1(C)C`, the mutagenic call (Test System: AMES SALMONELLA TYPHIMURIUM, Strain/Indicator: TA97A, Metabolic Activation: NONE, Method: PREINCUBATION) is “inactive; negative”; the mutagenic call (Test System: AMES SALMONELLA TYPHIMURIUM, Strain/Indicator: TA97A, Metabolic Activation: RAT, LIVER, S-9, AROCLOR 1254, Method: PREINCUBATION) is “inactive; negative”; the mutagenic call under setting [5] was “inactive; negative”; the mutagenic call under setting [6] is “inactive; negative”.
As to `COc1cc(N=Nc2ccc(N)cc2)c(C)cc1N=Nc1c(S(=O)(=O)O)cc2ccc(N)cc2c1O`, the mutagenic call is “inactive; negative” under setting [8]; “active; positive” under setting [12]; “inactive; negative” under setting [10]; “active; positive” (Test System: AMES SALMONELLA TYPHIMURIUM, Strain/Indicator: TA100, Metabolic Activation: RAT, LIVER, S-9, AROCLOR 1254, Method: STANDARD PLATE); “inactive; negative” under setting [11]; “active; positive” (Test System: AMES SALMONELLA TYPHIMURIUM, Strain/Indicator: TA1538, Metabolic Activation: RAT, LIVER, S-9, AROCLOR 1254, Method: STANDARD PLATE).
For `CCOP(=S)(OCC)Oc1ccc([N+](=O)[O-])cc1`, the mutagenic call runs as follows: under setting [1], “inactive; negative”; (Test System: AMES SALMONELLA TYPHIMURIUM, Strain/Indicator: TA98, Metabolic Activation: RAT, LIVER, S-9, KANECHLOR 500, Method: PREINCUBATION) “inactive; negative”; under setting [3], “active; positive”; under setting [10], “inactive; negative”; (Test System: AMES SALMONELLA TYPHIMURIUM, Strain/Indicator: TA100, Metabolic Activation: RAT, LIVER, S-9, KANECHLOR 500, Method: PREINCUBATION) “active; positive”; (Test System: AMES SALMONELLA TYPHIMURIUM, Strain/Indicator: TA100, Metabolic Activation: S-9, Method: STANDARD PLATE) “active; positive”.
Consider `COS(=O)(=O)c1ccccc1`, for which the mutagenic call (End Point: IN VITRO MICRONUCLEUS, Test System: MOUSE LYMPHOMA L5178Y CELLS, Metabolic Activation: NONE) was “active; positive”; the mutagenic call (End Point: IN VITRO MICRONUCLEUS, Test System: MOUSE LYMPHOMA L5178Y CELLS, Metabolic Activation: RAT, LIVER, S-9) is “active; positive”; the mutagenic call (End Point: In vitro micronucleus, Test System: Chinese Hamster Ovary (CHO-WBL) cells, Metabolic Activation: None) was “active; positive (p<0.05)”; the mutagenic call under setting [10] was “inactive; negative; response reported as weakly positive”; the mutagenic call (Test System: AMES SALMONELLA TYPHIMURIUM, Strain/Indicator: TA100, Metabolic Activation: RAT, LIVER, S-9, Method: STANDARD PLATE) is “active; positive”.
